# Source: US4153710A, “N-(4-[2-(pyrazole-1-carbonamide)-ethyl]-benzenesulphonyl)-urea” (Starogardzkie Zaklady Farmaceutyczne POLFA, priority 1976, dated 1979)
# “And” between values parts separate entries of the source, which are not always exact repeats. Equal entries are not always repeated.
# Key:
# [1] = system: calcium transmission in mitochondria of a rat's liver; assay: Calcium transmission to rat liver mitochondria; format: biochemical; settings: for % of inhibition, calcium transmission: medium with CaCl 300 nmoles/ml; for Ki / preference of inhibition: calcium transmission versus oxidizing processes: rat liver mitochondria
# Method: Sucrose 170mM, KCl 10 mM, MgCl2 […], K2 HPO 5 mM, EGTA 0.01 mM
# 2-oxoglutaran 2 mM, ADP 1 mM, mitochondria
# protein 4 mg/m. Temperature 25° C.
# of hydrogen ion consumption. The calcium transmission to mitochondria was
# studied with two methods; in a continuous way with a Radiometer calcium
# electrode type F2112 or with an isotopic method.
# *The medium contained Ca Cl 300 nmoles/ml.
# [2] = system: oxygen consumption in mitochondria of a rat's liver; assay: Oxygen consumption of rat liver mitochondria; format: biochemical; settings: for Ki: rat liver mitochondria
# Method: 2-oxoglutaran 2 mM, ADP 1 mM, mitochondria | protein 4 mg/m. […] The
# [3] = system: oxidizing phosphorylation in mitochondria of a rat's liver; assay: Oxidizing phosphorylation of rat liver mitochondria; format: biochemical; settings: for Ki: rat liver mitochondria
# Method: 2-oxoglutaran 2 mM, ADP 1 mM, mitochondria | protein 4 mg/m. […] The | oxidizing phosphorylation speed was determined by means of the measuremen | of hydrogen ion consumption. The calcium transmission to mitochondria was […]
# glucose concentration = assay: Blood glucose in normal men volunteers (Table 7); format: in vivo; settings: for Glucose concentration: oral 5 mg SPC-5002 or 12.5 mg Glibornuride
# Method: (§1) The hypoglycemic activity of N-{4-[2-(pyrazole-1-carbonamide)-ethyl]-benzenesulphonyl}-ureas prepared according to the present invention can be noticed after their oral administration to mice, rats, rabbits and people and when determining the glucose concentration in blood with a known enzymatic method using glucose oxidase.
# (§2) When administered to normal men volunteers it has been stated that 60 minutes after the administration of SPC-5002 a 5 mg oral dose causes the decrease in blood-glucose of 28% in comparision to the starting value and after 90 minutes it reaches 33% (Table 7). Whereas Glibornuride employed in a dose 2.5 times as big on peak of its activity decreases the glucose blood level only of 19%. It can clearly be noticed that there is a positive correlation between the glycemic and insulin level curves. Both examined preparations cause a significant decrease in free fatty acids in blood. […] 60 and 90 minutes after the SPC-5002 administration, the blood-glycose level is decreased to 33 and 52% while in the Placebo group it is maintained in the range of 13-14%.
# (§3) The comparison of glucose, insulin and free fatty acids concentration in
# (§4) normal men after the oral administration of 5 mg of SPC-5002 or 12.5 mg
# [4] = system: blood-glucose concentration; assay: ED30 oral hypoglycemic dose in mice (Table 2); format: in vivo
# Method: as §1
# (§5) (Table 2). […] It has been observed that even 9 hours after the administration of one dose of SPC-5002 to rats, the glucose level in blood was decreased, whereas in the case of Glibornuride the glucose level comes back to its normal value in 6 hours from the time of the administration.
# [5] = system: free fatty acids concentration; assay: Free fatty acids in normal men volunteers (Table 7); format: in vivo; settings: oral 5 mg SPC-5002 or 12.5 mg Glibornuride
# Method: as §2, §3, §4
# [6] = system: blood-glucose concentration; assay: Blood-glucose time course up to 24 hours in rats (Table 3); format: in vivo; settings: for glucose concentration in blood, average: oral 4 mg/kg
# Method: as §1, §5
# (§6) The comparison of SPC-5002 and Glibornuride effect on changes in
# concentration of rats in time up to 24 hours from the moment of the
# in an oral dose containing 4 mg/kg body weight
# insulin concentration = assay: Insulin in normal men volunteers (Table 7); format: in vivo; settings: oral 5 mg SPC-5002 or 12.5 mg Glibornuride
# Method: as §2, §3, §4
# [7] = system: blood-glucose concentration; assay: Blood-glucose time course up to 24 hours in rabbits (Table 4); format: in vivo; settings: oral 5 mg/kg
# Method: as §1, with “oxidase. […]” for “oxidase.”
# as §6
# concentration of rabbits in time up to 24 hours from the moment of the
# in an oral dose containing 5 mg/kg body weight
# [8] = system: blood-glucose concentration; assay: ED30 oral hypoglycemic dose in rabbits (Table 2); format: in vivo; settings: Oryctolagus cuniculus, read-out: Effective oral doses ED30
# Method: as §1, §5
# [9] = system: blood-glucose concentration; assay: Decrease in blood-glucose concentration in rats after oral dose (Table 1; ED30 rats Table 2); format: in vivo; settings: Rattus norvegicus; for inhibition in vivo at 0.5 mg/kg / inhibition in vivo at 1 mg/kg / inhibition in vivo at 5 mg/kg / inhibition in vivo at 10 mg/kg / inhibition in vivo at 20 mg/kg / inhibition in vivo at 2 mg/kg / inhibition in vivo at 50 mg/kg: po; for inhibition in vivo at 0.5 mg/kg: p.os. 0.5 mg/kg; for inhibition in vivo at 1 mg/kg: p.os. 1 mg/kg; for inhibition in vivo at 5 mg/kg: p.os. 5 mg/kg; for inhibition in vivo at 10 mg/kg: p.os. 10 mg/kg; for inhibition in vivo at 20 mg/kg: p.os. 20 mg/kg; for inhibition in vivo at 2 mg/kg: p.os. 2 mg/kg; for inhibition in vivo at 50 mg/kg: p.os. 50 mg/kg
# Text: as §1
# The exemplary comparison of effective doses (ED30) and the effect of oral dose size of the compounds prepared according to the present invention with Glibornuride, which is distinguished by its high effectiveness and good tolerance when administered to people, on the glucose concentration in the blood of rats, is given in Table 1.
structure (smiles),measurement,setting,value
COc1ccc(Cl)cc1C(=O)NCCc1ccc(S(=O)(=O)NC(=O)NC2CCCCC2)cc1 [Glibenclamide],Calcium transmission / Oxide consumption (ratio of inhibition),[1]; concentration 0.01 n M,0.46
same,"% of inhibition, calcium transmission",[1]; concentration 0.01 n M,12%
same,Calcium transmission / Oxide consumption (ratio of inhibition),[1]; concentration 0.02 n M,0.65
same,"% of inhibition, calcium transmission",[1]; concentration 0.02 n M,28%
same,Calcium transmission / Oxide consumption (ratio of inhibition),[1]; concentration 0.05 n M,0.82
same,"% of inhibition, calcium transmission",[1]; concentration 0.05 n M,52%
same,Calcium transmission / Oxide consumption (ratio of inhibition),[1]; concentration 0.1 n M,0.90
same,"% of inhibition, calcium transmission",[1]; concentration 0.1 n M,68%
same,Calcium transmission / Oxide consumption (ratio of inhibition),[1]; concentration 0.5 n M,0.97
same,"% of inhibition, calcium transmission",[1]; concentration 0.5 n M,85%
same,Ki,[1],47 µM
same,preference of inhibition: calcium transmission versus oxidizing processes,[1],acts much stronger on oxidizing and phosphorylation processes than on the calcium transmission
same,"Ki ratio SPC-5002 / Glibenclamide, calcium transmission",[1]; ratio of inhibitor constants,10
same,"% of inhibition, oxygen consumption",[2]; concentration 0.01 n M,26%
same,"% of inhibition, oxygen consumption",[2]; concentration 0.02 n M,43%
same,"% of inhibition, oxygen consumption",[2]; concentration 0.05 n M,60% and 63%
same,"% of inhibition, oxygen consumption",[2]; concentration 0.1 n M,75%
same,"% of inhibition, oxygen consumption",[2]; concentration 0.5 n M,87%
same,Ki,[2],30 µM
same,"% of inhibition, oxidizing phosphorylation",[3]; concentration 0.01 n M,29%
same,"% of inhibition, oxidizing phosphorylation",[3]; concentration 0.02 n M,48%
same,"% of inhibition, oxidizing phosphorylation",[3]; concentration 0.05 n M,60%
same,"% of inhibition, oxidizing phosphorylation",[3]; concentration 0.1 n M,80%
same,"% of inhibition, oxidizing phosphorylation",[3]; concentration 0.5 n M,100%
same,Ki,[3],22 µM
"Cc1ccc(S(=O)(=O)NC(=O)N[C@H]2[C@H]3CC[C@@](C)([C@H]2O)C3(C)C)cc1 [Glibornuride, N-(p-toluenesulphonyl)-N'-(2-endo-hydroxy-3-endo-bornyl)-urea, reference compound]",Calcium transmission / Oxide consumption (ratio of inhibition),[1]; concentration 0.5 n M,2.36
same,"% of inhibition, calcium transmission",[1]; concentration 0.5 n M,52%
same,Calcium transmission / Oxide consumption (ratio of inhibition),[1]; concentration 1.0 n M,1.60
same,"% of inhibition, calcium transmission",[1]; concentration 1.0 n M,76%
same,Ki,[1],490 µM
same,preference of inhibition: calcium transmission versus oxidizing processes,[1],preferential inhibiting of calcium transmission
same,decrease in glucose blood level at peak of activity,glucose concentration; dose 2.5 times that of SPC-5002 (12.5 mg),19%
same,Glucose concentration,glucose concentration; 0 mins (empty stomach),91.0 mg/100 cc
same,Glucose concentration,glucose concentration; 30 mins,87.0 mg/100 cc
same,Glucose concentration,glucose concentration; 60 mins,80.0 mg/100 cc
same,Glucose concentration,glucose concentration; 90 mins,74.0 mg/100 cc
same,Glucose concentration,glucose concentration; 120 mins,75.0 mg/100 cc
same,Glucose concentration,glucose concentration; 180 mins,76.0 mg/100 cc
same,"% of inhibition, oxygen consumption",[2]; concentration 0.5 n M,22%
same,"% of inhibition, oxygen consumption",[2]; concentration 1.0 n M,47%
same,Ki,[2],1150 µM
same,ED30 relative to SPC-5002,[4],almost three times as big as for SPC-5002
same,ED30,"[4]; Mus musculus, oral, read-out: Effective oral doses ED30",5.2 mg/kg
same,Free fatty acids concentration,[5]; 0 mins (empty stomach),0.76 mEq/1000 cc
same,Free fatty acids concentration,[5]; 30 mins,0.58 mEq/1000 cc
same,Free fatty acids concentration,[5]; 60 mins,0.46 mEq/1000 cc
same,Free fatty acids concentration,[5]; 90 mins,0.48 mEq/1000 cc
same,Free fatty acids concentration,[5]; 120 mins,0.51 mEq/1000 cc
same,Free fatty acids concentration,[5]; 180 mins,0.52 mEq/1000 cc
same,duration of decreased blood glucose after one dose,[6]; one dose,6 h
same,"glucose concentration in blood, average",[6]; 0 h,68 mg/100 cc
same,"glucose concentration in blood, average",[6]; 1 h,48 mg/100 cc
same,"glucose concentration in blood, average",[6]; 3 h,47 mg/100 cc
same,"glucose concentration in blood, average",[6]; 6 h,65 mg/100 cc
same,"glucose concentration in blood, average",[6]; 9 h,74 mg/100 cc
same,"glucose concentration in blood, average",[6]; 24 h,77 mg/100 cc
same,Insulin concentration,insulin concentration; 0 mins (empty stomach),3.6 μU/cc
same,Insulin concentration,insulin concentration; 30 mins,4.2 μU/cc
same,Insulin concentration,insulin concentration; 60 mins,6.2 μU/cc
same,Insulin concentration,insulin concentration; 90 mins,5.2 μU/cc
same,Insulin concentration,insulin concentration; 120 mins,6.4 μU/cc
same,Insulin concentration,insulin concentration; 180 mins,4.4 μU/cc
same,"% of inhibition, oxidizing phosphorylation",[3]; concentration 0.5 n M,32%
same,"% of inhibition, oxidizing phosphorylation",[3]; concentration 1.0 n M,59%
same,Ki,[3],760 µM
same,"glucose concentration in blood, average",[7]; 0 h,74 mg/100 cc
same,"glucose concentration in blood, average",[7]; 0.5 h,62 mg/100 cc
same,"glucose concentration in blood, average",[7]; 1 h,63 mg/100 cc
same,% of decrease /-/ or increase /+/ of blood glucose,[7]; 3 h,0%
same,"glucose concentration in blood, average",[7]; 3 h,74 mg/100 cc
same,"glucose concentration in blood, average",[7]; 6 h,75 mg/100 cc
same,"glucose concentration in blood, average",[7]; 9 h,75 mg/100 cc
same,"glucose concentration in blood, average",[7]; 24 h,78 mg/100 cc
same,ED30,[8],7.6 mg/kg
same,ED30,"[9]; oral, read-out: Effective oral doses ED30",3.8 mg/kg
CCCCNC(=O)NS(=O)(=O)c1ccc(C)cc1 [Tolbutamide],Calcium transmission / Oxide consumption (ratio of inhibition),[1]; concentration 1.0 n M,1.92
same,"% of inhibition, calcium transmission",[1]; concentration 1.0 n M,27%
same,preference of inhibition: calcium transmission versus oxidizing processes,[1],preferential inhibiting of calcium transmission
same,"% of inhibition, oxygen consumption",[2]; concentration 1.0 n M,14%
same,"% of inhibition, oxidizing phosphorylation",[3]; concentration 1.0 n M,7%
CCCCNC(=O)NS(=O)(=O)c1ccc(CCNC(=O)n2ccc(C)n2)cc1 [compound 21],inhibition in vivo at 0.5 mg/kg,[9]; 1 h,6%
same,inhibition in vivo at 0.5 mg/kg,[9]; 3 h,22%
same,inhibition in vivo at 0.5 mg/kg,[9]; 6 h,29%
same,inhibition in vivo at 1 mg/kg,[9]; 1 h,23%
same,inhibition in vivo at 1 mg/kg,[9]; 3 h,23%
same,inhibition in vivo at 1 mg/kg,[9]; 6 h,22%
same,inhibition in vivo at 5 mg/kg,[9]; 1 h,22%
same,inhibition in vivo at 5 mg/kg,[9]; 3 h,38%
same,inhibition in vivo at 5 mg/kg,[9]; 6 h,43%
same,inhibition in vivo at 10 mg/kg,[9]; 1 h,55%
same,inhibition in vivo at 10 mg/kg,[9]; 3 h,53%
same,inhibition in vivo at 10 mg/kg,[9]; 6 h,56%
same,inhibition in vivo at 20 mg/kg,[9]; 1 h,50%
same,inhibition in vivo at 20 mg/kg,[9]; 3 h,55%
same,inhibition in vivo at 20 mg/kg,[9]; 6 h,56%
CCCNC(=O)NS(=O)(=O)c1ccc(CCNC(=O)n2ccc(C)n2)cc1 [compound 22],inhibition in vivo at 2 mg/kg,[9]; 1 h,4%
same,inhibition in vivo at 2 mg/kg,[9]; 3 h,26%
same,inhibition in vivo at 2 mg/kg,[9]; 6 h,23%
same,inhibition in vivo at 5 mg/kg,[9]; 1 h,15%
same,inhibition in vivo at 5 mg/kg,[9]; 3 h,24%
same,inhibition in vivo at 5 mg/kg,[9]; 6 h,26%
same,inhibition in vivo at 10 mg/kg,[9]; 1 h,25%
same,inhibition in vivo at 10 mg/kg,[9]; 3 h,29%
same,inhibition in vivo at 10 mg/kg,[9]; 6 h,35%
same,inhibition in vivo at 20 mg/kg,[9]; 1 h,45%
same,inhibition in vivo at 20 mg/kg,[9]; 3 h,56%
same,inhibition in vivo at 20 mg/kg,[9]; 6 h,56%
same,inhibition in vivo at 50 mg/kg,[9]; 1 h,54%
same,inhibition in vivo at 50 mg/kg,[9]; 3 h,55%
same,inhibition in vivo at 50 mg/kg,[9]; 6 h,48%
